According to US4267180A, “Novel antibacterial amide compounds and process means for producing the same” (Warner-Lambert Company, priority 1980, dated 1981):

Legend:
Test in all cases: Minimal Inhibitory Concentration, in vitro
Type in all cases: cell-based
Parameters in all cases: unit not given here
[1] = system: Enterobacter Cloacae IMM-11
Excerpt: (§1) The compounds of the invention are new chemical compounds that are useful as pharmacological agents and especially as broad spectrum antibacterial agents. They are active in vitro against strains of both gram-positive and gram-negative bacteria.
(§2) Minimal Inhibitory Concentration

[2] = system: Klebsiella Pneumoniae MGH-2
Excerpt: as §1, §2

[3] = system: Proteus Vulgaris 1810
Excerpt: as §1, §2

[4] = system: Pseudomonas Aeruginosa #28
Excerpt: as §1, §2

[5] = system: Pseudomonas Aeruginosa UI-18
Excerpt: as §1, §2

[6] = system: Serratia Marcescens IMM-16
Excerpt: as §1, §2

[7] = system: Staph Aureus UC-76
Excerpt: as §1, §2

Row | Structure (SMILES) | Minimal Inhibitory Concentration [1] | Minimal Inhibitory Concentration [2] | Minimal Inhibitory Concentration [3] | Minimal Inhibitory Concentration [4] | Minimal Inhibitory Concentration [5] | Minimal Inhibitory Concentration [6] | Minimal Inhibitory Concentration [7]
1 | CC(=O)N1CCCC1C(=O)Nc1ccc(-c2ncc(C(=O)N[C@@H](C(=O)N[C@@H]3C(=O)N4[C@@H]3SC(C)(C)[C@@H]4C(=O)O)c3ccc(O)cc3)c(O)n2)cc1 (mixture of isomers) [N-Acetyl-DL-Prolyl, N-[2-[4-(N-Acetyl-DL-prolylamino)phenyl]-4-hydroxy-5-pyrimidinylcarbonyl]amoxicillin] | 12.5 | 50 | 1.6 | 1.6 | 1.6 | 12.5 | 0.8
2 | CC(=O)NC(CC(C)C)C(=O)Nc1ccc(-c2ncc(C(=O)N[C@@H](C(=O)N[C@@H]3C(=O)N4[C@@H]3SC(C)(C)[C@@H]4C(=O)O)c3ccc(O)cc3)c(O)n2)cc1 (mixture of isomers) [N-Acetyl-DL-Leucyl, N-[2-[4-(N-Acetyl-DL-leucylamino)phenyl]-4-hydroxy-5-pyrimidinylcarbonyl]amoxicillin] | 25 | > 50 | 3.1 | 3.1 | 3.1 | 25 | 1.6
3 | CC(=O)NCC(=O)Nc1ccc(-c2ncc(C(=O)N[C@@H](C(=O)N[C@@H]3C(=O)N4[C@@H]3SC(C)(C)[C@@H]4C(=O)O)c3ccc(O)cc3)c(O)n2)cc1 [N-Acetyl Glycyl] | 6.3 | 50 | 1.6 | 1.6 | 6.3 | 6.3 | 0.8
4 | CC(=O)NCCC(=O)Nc1ccc(-c2ncc(C(=O)N[C@@H](C(=O)N[C@@H]3C(=O)N4[C@@H]3SC(C)(C)[C@@H]4C(=O)O)c3ccc(O)cc3)c(O)n2)cc1 [N-Acetyl-beta-Alanyl, N-[2-[4-(N-Acetyl-beta-alanylamino)phenyl]-4-hydroxy-5-pyrimidinylcarbonyl]amoxicillin] | 6.3 | 25 | 0.8 | 0.8 | 0.8 | 6.3 | 0.4
